Key:
[1] = system: KB tumor xenografts (FR+); assay: Ex vivo biodistribution in nude mice bearing KB tumor xenografts; settings: 120 min p.i., ± SEM
[2] = molecular target: FR (folate receptor) on KB cells (Homo sapiens, UniProt P15328); assay: Relative binding affinity: inhibition of 3H-folate binding to cultured KB cells; settings: read-out: mean IC50 (relative binding affinity, block of 3H-folic acid binding), 10 nM 3H-folate, 1 h, 37 °C
Sequence of FR (folate receptor) on KB cells (P15328 25-257): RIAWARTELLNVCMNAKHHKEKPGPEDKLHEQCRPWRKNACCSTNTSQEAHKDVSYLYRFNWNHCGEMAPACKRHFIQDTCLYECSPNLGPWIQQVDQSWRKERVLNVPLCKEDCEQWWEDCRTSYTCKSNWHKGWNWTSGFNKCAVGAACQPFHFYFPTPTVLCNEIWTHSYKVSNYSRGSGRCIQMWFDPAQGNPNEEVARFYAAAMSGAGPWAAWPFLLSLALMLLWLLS

`[NH-][C@@H](CNC(=O)CC[C@@H](NC(=O)c1ccc(NCc2cnc3nc(N)[nH]c(=O)c3n2)cc1)C(=O)O)C(=O)[N-][C@@H](CC(=O)O)C(=O)[N-][C@@H](C[S-])C(=O)O.[O]=[Tc+4]` [^99mTc-EC20] was tested, and the “Biodistribution: Blood” value ([1]; Control) was 0.3 ± 0.01 %ID/g, the “Biodistribution: Heart” value ([1]; Control) was 1.9 ± 0.1 %ID/g and the “Biodistribution: KB Tumor” value ([1]; Control) was 10.9 ± 0.6 %ID/g. The “Biodistribution: Kidney” value ([1]; Control) was 113.0 ± 3.6 %ID/g, the “Biodistribution: Liver” value ([1]; Control) was 4.1 ± 0.3 %ID/g and the “Biodistribution: Lung” value ([1]; Control) was 2.1 ± 0.1 %ID/g. The “Biodistribution: Muscle” value ([1]; Control) was 1.2 ± 0.04 %ID/g, the “Biodistribution: Plasma” value ([1]; Control) was 0.5 ± 0.03 %ID/g and the “Biodistribution: Spleen” value ([1]; Control) was 0.8 ± 0.1 %ID/g. For the same compound, the “KB Tumor/Blood ratio” value ([1]; Control) was 41.5 ± 2.2, the “KB Tumor/Kidney ratio” value ([1]; Control) was 0.1 ± 0.01 and the “KB Tumor/Liver ratio” value ([1]; Control) was 3.1 ± 0.3. For the same compound, the “Biodistribution: Blood” value ([1]; FA Block (100 μg folic acid)) was 0.3 ± 0.1 %ID/g, the “Biodistribution: Heart” value ([1]; FA Block (100 μg folic acid)) was 0.1 ± 0.02 %ID/g and the “Biodistribution: KB Tumor” value ([1]; FA Block (100 μg folic acid)) was 0.9 ± 0.1 %ID/g. For the same compound, the “Biodistribution: Kidney” value ([1]; FA Block (100 μg folic acid)) was 6.7 ± 1.6 %ID/g, the “Biodistribution: Liver” value ([1]; FA Block (100 μg folic acid)) was 2.5 ± 0.5 %ID/g and the “Biodistribution: Lung” value ([1]; FA Block (100 μg folic acid)) was 0.8 ± 0.2 %ID/g. The “Biodistribution: Muscle” value ([1]; FA Block (100 μg folic acid)) was 0.1 ± 0.02 %ID/g, the “Biodistribution: Plasma” value ([1]; FA Block (100 μg folic acid)) was 0.5 ± 0.1 %ID/g and the “Biodistribution: Spleen” value ([1]; FA Block (100 μg folic acid)) was 0.5 ± 0.2 %ID/g. For the same compound, the “KB Tumor/Blood ratio” value ([1]; FA Block (100 μg folic acid)) was 2.9 ± 0.4, the “KB Tumor/Kidney ratio” value ([1]; FA Block (100 μg folic acid)) was 0.1 ± 0.02 and the “KB Tumor/Liver ratio” value ([1]; FA Block (100 μg folic acid)) was 0.4 ± 0.1.
In the case of `Nc1nc2ncc(CNc3ccc(C(=O)N[C@@H](CCC(=O)NCCOCCOCCNC(=O)CN4CCN(CC(=O)O)CCN(CC(=O)O)CC4)C(=O)O)cc3)nc2c(=O)[nH]1` [folate-NOTA], the IC50 [2] is reported as 18.7 nM.

Reference: PMC5343510 (Molecular pharmaceutics, 2016)
